Results as given in US20240335442A1 (Eurofarma Laboratórios S.A., priority 2021, published 2024).

Key:
Type in all cases: cell-based
[1] = target: T1, human sodium channel Nav 1.7 (Homo sapiens (Human), UniProt Q15858); assay: Automated whole-cell voltage-clamp (ScreenPatch 384P), Nav 1.7 sodium current, Protocol 1; settings: Protocol 1 (holding voltage -90 mV, 0.1 Hz); CHO cells expressing human Nav 1.7; room temperature; read-out: Nav1.7 IC50
Experimental: (§1) Biological assays were performed on Chinese hamster ovary (CHO) cells expressing the human sodium channels Nav 1.8 and Nav 1.7 stably.
(§2) The experimental voltage-clamp protocol using the whole cell configuration was established on the automated ScreenPatch® 384P platform (SP384PE, Nanion Technologies, Livingston, NJ) and recording of the results was performed with a Nanion 384-well Patch Clamp chip (NPC) (Nanion Technologies, Livingston, NJ).
(§3) Compounds of Formula (I), were diluted in eight concentrations in the extracellular solution composed of physiological saline, buffered with HEPES (mM): NaCl, 137; KCl, 4; CaCl2, 3.8; MgCl2, 1; HEPES, 10; Glucose, 10; pH 7.4. The […], 50; CsF, 90; MgCl2, 5; EGTA, 5; HEPES, 10; pH 7.2. The duration of exposure of each compound with the cells expressing Nav 1.7 or Nav 1.8 was at least five minutes and the assays were performed at room temperature.
(§4) The measurements of the sodium currents of Nav 1.8 and Nav 1.7 were obtained using the voltage protocols described below: • Protocol 1: A holding voltage of-90 mV was established followed by a voltage phase of 200 ms to-120 mV, followed by a voltage step of 10 mV for 1 second for Nav 1.8 or 0 mV for Nav 1.7, followed by a step of-100 mV for 20 ms, followed by a step of 20 ms for 10 mV for Nav 1.8 or 0 mV for Nav 1.7 (TP1A) before returning to the holding voltage of-90 mV. • Protocol 2: A holding voltage of-100 mV was established followed by an inactivation voltage step at −40 mV for 8 seconds, followed by a −100 mV step for 20 ms, followed by a 20 ms step for 10 mV for Nav 1.8 or 0 mV for Nav 1.7 (TP1A) before returning to the holding voltage of-100 mV.
(§5) Protocols were repeated at a frequency of 0.1 Hz (Protocol 1) or 0.05 Hz (Protocol 2) and current amplitude was quantified over the TP1A phase log. The variation in the peak amplitude of the current was evaluated according to the Formula described below, after exposure of the cells expressing the channels, at each concentration of the different compounds:
(§6) where ITP1A,basal, and ITP1A,molecule represent the entry peaks of sodium currents into TP1A prior to exposure to the compound and in the presence of the compound, respectively.
(§7) The decrease in peak current amplitude, after exposure of the cells to the compounds, was used to calculate the percent relative blocking of the channels relative to the positive control according to the Formula below: […]
(§8) where % V and % CP represent the averages of the values of current inhibition with a vehicle (DMSO) and positive controls, respectively. The sodium currents of the positive control were considered as 100%.
(§9) where [Test] represents the concentration of the evaluated molecule, IC50 is the concentration of the compound that generates half of the maximum inhibition, N is the Hill's coefficient and % Block′ is the percentage of the sodium channel current (Nav 1.8 and Nav 1.7) inhibited at each concentration of the evaluated molecule. Data were obtained by non linear least squares regression with XL fit for Excel (Microsoft, Redmond, WA).
(§10) Compounds were tested in at least one assay to obtain the IC50 value.

[2] = target: T2, human sodium channel Nav 1.8 (Homo sapiens (Human), UniProt Q9Y5Y9); assay: Automated whole-cell voltage-clamp (ScreenPatch 384P), Nav 1.8 sodium current, Protocol 1; settings: Protocol 1 (holding voltage -90 mV, 0.1 Hz); CHO cells expressing human Nav 1.8; room temperature; read-out: Nav1.8 IC50
T2 sequence (Q9Y5Y9 whole entry): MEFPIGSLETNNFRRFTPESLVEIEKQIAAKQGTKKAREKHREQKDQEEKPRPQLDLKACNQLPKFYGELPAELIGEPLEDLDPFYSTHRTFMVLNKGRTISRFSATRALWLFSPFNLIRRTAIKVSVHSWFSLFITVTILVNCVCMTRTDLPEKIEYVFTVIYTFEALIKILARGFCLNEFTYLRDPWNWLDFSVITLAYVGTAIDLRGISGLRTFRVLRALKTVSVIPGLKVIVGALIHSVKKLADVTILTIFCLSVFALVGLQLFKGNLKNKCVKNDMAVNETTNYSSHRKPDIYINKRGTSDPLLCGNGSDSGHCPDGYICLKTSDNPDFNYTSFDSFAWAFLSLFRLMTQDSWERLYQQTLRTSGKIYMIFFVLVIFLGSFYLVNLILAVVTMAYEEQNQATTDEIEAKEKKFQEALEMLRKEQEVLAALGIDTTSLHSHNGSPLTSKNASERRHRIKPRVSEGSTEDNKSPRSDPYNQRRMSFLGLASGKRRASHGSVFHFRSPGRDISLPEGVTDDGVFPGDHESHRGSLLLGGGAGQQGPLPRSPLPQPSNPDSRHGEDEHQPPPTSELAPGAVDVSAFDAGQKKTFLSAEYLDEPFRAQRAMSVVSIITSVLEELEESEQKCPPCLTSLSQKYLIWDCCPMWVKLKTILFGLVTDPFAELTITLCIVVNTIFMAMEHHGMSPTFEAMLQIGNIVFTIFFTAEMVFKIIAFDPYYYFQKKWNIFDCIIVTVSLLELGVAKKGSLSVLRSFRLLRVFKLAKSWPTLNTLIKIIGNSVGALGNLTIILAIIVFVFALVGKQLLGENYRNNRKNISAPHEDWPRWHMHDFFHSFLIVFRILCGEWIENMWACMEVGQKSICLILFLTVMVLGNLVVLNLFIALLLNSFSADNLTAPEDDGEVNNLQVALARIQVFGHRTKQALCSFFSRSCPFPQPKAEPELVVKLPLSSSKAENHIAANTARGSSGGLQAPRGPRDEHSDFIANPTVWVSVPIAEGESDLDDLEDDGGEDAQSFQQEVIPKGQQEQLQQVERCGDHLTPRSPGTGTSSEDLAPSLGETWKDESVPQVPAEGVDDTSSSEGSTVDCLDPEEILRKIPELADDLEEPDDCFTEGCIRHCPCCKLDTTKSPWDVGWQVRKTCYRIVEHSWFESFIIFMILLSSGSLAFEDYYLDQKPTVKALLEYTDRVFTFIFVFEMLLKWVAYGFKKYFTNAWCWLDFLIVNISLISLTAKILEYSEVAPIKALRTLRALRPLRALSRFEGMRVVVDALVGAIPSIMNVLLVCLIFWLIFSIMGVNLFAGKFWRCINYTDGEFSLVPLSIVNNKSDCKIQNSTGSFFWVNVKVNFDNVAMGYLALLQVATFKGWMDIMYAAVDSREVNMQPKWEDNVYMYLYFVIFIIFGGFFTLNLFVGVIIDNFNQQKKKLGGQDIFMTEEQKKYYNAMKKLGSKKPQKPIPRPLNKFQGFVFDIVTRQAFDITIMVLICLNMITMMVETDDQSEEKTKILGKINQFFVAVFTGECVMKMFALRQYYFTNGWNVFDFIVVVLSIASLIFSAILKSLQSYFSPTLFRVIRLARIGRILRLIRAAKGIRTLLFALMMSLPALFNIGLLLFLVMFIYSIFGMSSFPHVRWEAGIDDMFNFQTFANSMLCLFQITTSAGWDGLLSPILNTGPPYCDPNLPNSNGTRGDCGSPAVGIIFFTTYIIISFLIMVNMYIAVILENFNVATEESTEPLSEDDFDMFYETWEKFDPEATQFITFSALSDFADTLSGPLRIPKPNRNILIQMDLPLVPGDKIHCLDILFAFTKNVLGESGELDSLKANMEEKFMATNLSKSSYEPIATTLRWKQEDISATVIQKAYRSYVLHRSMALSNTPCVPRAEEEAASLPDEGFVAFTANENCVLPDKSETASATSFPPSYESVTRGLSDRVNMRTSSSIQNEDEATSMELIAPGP
Experimental: as §1, §2, §3, §4, §5, §6, §7, §8, §9, §10

[3] = target: T2, human sodium channel Nav 1.8; assay: Automated whole-cell voltage-clamp (ScreenPatch 384P), Nav 1.8 sodium current, Protocol 2; settings: read-out: Nav1.8 IC50
How it was run: (§11)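 CHO cells stably expressing human Nav1.7 or Nav1.8, automated whole-cell clamp, room temperature, ≥5 min exposure at eight concentrations. Protocol 1: hold −90 mV, 0.1 Hz, test pulse 0 mV (Nav1.7) or 10 mV (Nav1.8). Protocol 2: hold −100 mV with 8 s −40 mV inactivating step, 0.05 Hz. IC50 from Hill fit of TP1A peak-current block, normalized to vehicle and positive control.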

[4] = target: T1, human sodium channel Nav 1.7; assay: Automated whole-cell voltage-clamp (ScreenPatch 384P), Nav 1.7 sodium current, Protocol 2; settings: read-out: Nav1.7 IC50
How it was run: as §11

T1 sequence (Q15858 whole entry): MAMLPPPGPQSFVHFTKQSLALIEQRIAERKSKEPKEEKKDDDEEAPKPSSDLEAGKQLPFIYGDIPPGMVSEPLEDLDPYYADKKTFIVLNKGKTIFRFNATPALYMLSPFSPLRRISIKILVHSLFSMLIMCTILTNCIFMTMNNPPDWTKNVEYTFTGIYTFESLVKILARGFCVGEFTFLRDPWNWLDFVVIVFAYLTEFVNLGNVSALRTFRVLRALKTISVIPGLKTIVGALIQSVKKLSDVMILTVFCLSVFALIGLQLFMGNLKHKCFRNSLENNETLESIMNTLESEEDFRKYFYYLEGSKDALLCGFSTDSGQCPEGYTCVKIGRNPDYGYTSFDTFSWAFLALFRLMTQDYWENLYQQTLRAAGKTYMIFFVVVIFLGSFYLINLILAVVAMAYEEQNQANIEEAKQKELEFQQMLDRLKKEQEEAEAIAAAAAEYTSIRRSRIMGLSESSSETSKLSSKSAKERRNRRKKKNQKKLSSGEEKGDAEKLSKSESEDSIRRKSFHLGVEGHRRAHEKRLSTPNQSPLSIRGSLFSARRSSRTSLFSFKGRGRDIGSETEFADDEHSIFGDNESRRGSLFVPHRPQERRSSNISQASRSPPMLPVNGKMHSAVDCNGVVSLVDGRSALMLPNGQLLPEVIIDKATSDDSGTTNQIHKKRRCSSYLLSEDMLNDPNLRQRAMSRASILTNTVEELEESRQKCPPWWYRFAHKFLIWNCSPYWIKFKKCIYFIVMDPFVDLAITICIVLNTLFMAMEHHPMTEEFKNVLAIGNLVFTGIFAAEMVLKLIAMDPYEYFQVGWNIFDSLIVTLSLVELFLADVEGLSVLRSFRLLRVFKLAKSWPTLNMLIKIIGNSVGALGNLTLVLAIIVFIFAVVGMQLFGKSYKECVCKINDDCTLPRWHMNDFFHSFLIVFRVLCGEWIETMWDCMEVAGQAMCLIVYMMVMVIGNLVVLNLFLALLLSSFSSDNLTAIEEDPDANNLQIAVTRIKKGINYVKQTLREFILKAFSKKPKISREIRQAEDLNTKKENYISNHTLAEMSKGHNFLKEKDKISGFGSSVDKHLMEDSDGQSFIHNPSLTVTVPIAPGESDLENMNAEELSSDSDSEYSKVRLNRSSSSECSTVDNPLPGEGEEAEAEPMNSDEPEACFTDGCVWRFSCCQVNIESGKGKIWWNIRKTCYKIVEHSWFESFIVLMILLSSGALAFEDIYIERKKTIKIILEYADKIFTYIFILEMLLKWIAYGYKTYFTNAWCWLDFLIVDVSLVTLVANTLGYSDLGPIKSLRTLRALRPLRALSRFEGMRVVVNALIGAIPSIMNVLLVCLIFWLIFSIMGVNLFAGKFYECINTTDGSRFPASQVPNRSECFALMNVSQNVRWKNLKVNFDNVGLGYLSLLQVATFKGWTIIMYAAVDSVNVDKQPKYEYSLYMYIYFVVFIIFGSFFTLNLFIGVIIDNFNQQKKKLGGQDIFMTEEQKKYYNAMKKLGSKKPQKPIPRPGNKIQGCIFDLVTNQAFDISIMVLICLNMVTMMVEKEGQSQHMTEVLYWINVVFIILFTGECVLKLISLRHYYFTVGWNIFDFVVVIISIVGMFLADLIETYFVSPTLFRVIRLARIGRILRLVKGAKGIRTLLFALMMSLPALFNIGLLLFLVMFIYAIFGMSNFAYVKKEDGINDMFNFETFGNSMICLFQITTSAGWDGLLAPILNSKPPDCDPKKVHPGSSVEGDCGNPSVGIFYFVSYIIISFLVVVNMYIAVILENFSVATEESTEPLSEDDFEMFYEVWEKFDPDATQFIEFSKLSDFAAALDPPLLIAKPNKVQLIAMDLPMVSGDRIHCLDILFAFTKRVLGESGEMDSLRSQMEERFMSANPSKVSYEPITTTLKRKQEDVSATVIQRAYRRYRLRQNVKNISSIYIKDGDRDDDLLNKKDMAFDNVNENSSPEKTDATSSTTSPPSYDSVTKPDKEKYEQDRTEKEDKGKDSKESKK

Compound	IC50 [1] [µM]	IC50 [2] [µM]	IC50 [3] [µM]	IC50 [4] [µM]
CCOc1ccc(-c2cncc(C(=O)N/N=C/c3cc(OC)cc(OCCN(C)C)c3)n2)cc1 [Compound 4, (E)-N′-(3-(2-(dimethylamino)ethoxy)-5-methoxybenzylidene)-6-(4-ethoxyphenyl)pyrazine-2-carbohydrazide]	6.66	6.02		
CCOc1ccc(-c2cncc(C(=O)N/N=C/c3cc(OC)cc4ncoc34)n2)cc1 [Compound 5, (E)-6-(4-ethoxyphenyl)-N′-((5-methoxybenzo[d]oxazol-7-yl)methylene)pyrazine-2-carbohydrazide]	> 10	5.63		
CCOc1ccc(-c2cncc(C(=O)N/N=C/c3cncc(OC)c3)n2)cc1 [Compound 8, (E)-6-(4-ethoxyphenyl)-N′-((5-methoxypyridin-3-yl)methylene)pyrazine-2-carbohydrazide]	> 10	> 10		
CCOc1ccc(-c2cncc(C(=O)N/N=C/c3cc(OC)ccn3)n2)cc1 [Compound 9, (E)-6-(4-ethoxyphenyl)-N′-((4-methoxypyridin-2-yl)methylene)pyrazine-2-carbohydrazide]	> 10	9.77		
CCOc1ccc(-c2cncc(C(=O)N/N=C/c3cccc(OC)n3)n2)cc1 [Compound 11, (E)-6-(4-ethoxyphenyl)-N′-((6-methoxypyridin-2-yl)methylene)pyrazine-2-carbohydrazide]	4.52	3.23		
CCOc1ccc(-c2cncc(C(=O)N/N=C/c3ccc(OC)cc3)n2)cc1 [Compound 23, (E)-6-(4-ethoxyphenyl)-N′-(4-methoxybenzylidene)pyrazine-2-carbohydrazide]	0.697	1.9		
CCOc1ccc(-c2cncc(C(=O)N/N=C/c3ccncc3)n2)cc1 [Compound 24, (E)-6-(4-ethoxyphenyl)-N′-(pyridin-4-ylmethylene)pyrazine-2-carbohydrazide]	> 10	8.09		
CCOc1ccc(-c2cncc(C(=O)N/N=C/c3ccccn3)n2)cc1 [Compound 25, (E)-6-(4-ethoxyphenyl)-N′-(pyridin-2-ylmethylene)pyrazine-2-carbohydrazide]	> 10	> 10		
CCOc1ccc(-c2cncc(C(=O)N/N=C/c3ccc(OC)c(OC)c3)n2)cc1 [Compound 28, (E)-N′-(3,4-dimethoxybenzylidene)-6-(4-ethoxyphenyl)pyrazine-2-carbohydrazide]	1.41	2.37		
CCOc1ccc(-c2cncc(C(=O)N/N=C(\C)c3cc(OC)cc(OC)c3)n2)cc1 [Compound 166, (E)-N′-(1-(3,5-dimethoxyphenyl)ethylidene)-6-(4-ethoxyphenyl)pyrazine-2-carbohydrazide]	6.36	9.18		
CCOc1ccc(-c2cncc(C(=O)N/N=C/c3ccc(C(=O)NS(C)(=O)=O)cc3)n2)cc1 [Compound 188, (E)-4-((2-(6-(4-ethoxyphenyl)pyrazine-2-carbonyl)hydrazinalidene)methyl)-N-(methylsulfonyl)benzamide]			> 1	> 10
COc1cc(/C=N/NC(=O)c2cncc(-c3ccc(C(=O)NS(C)(=O)=O)cc3)n2)cc(OC)c1 [Compound 190, (E)-4-(6-(2-(3,5-dimethoxybenzylidene)hydrazine-1-carbonyl)pyrazin-2-yl)-N-(methylsulfonyl)benzamide]			> 1	> 10
CCOc1ccc(-c2cncc(C(=O)N/N=C/c3ccccc3CS(C)(=O)=O)n2)cc1 [Compound 191, (E)-6-(4-ethoxyphenyl)-N′-(2-((methylsulfonyl)methyl)benzylidene)pyrazine-2-carbohydrazide]			> 1	3.2
CCOc1ccc(-c2cncc(C(=O)N/N=C/c3ccccc3S(C)(=O)=O)n2)cc1 [Compound 192]			0.952	7.22
CCOc1ccc(-c2cncc(C(=O)N/N=C/c3ccccc3NS(C)(=O)=O)n2)cc1 [Compound 193, (E)-N-(2-((2-(6-(4-ethoxyphenyl)pyrazine-2-carbonyl)hydrazinalidene)methyl)phenyl)methanesulfonamide]			> 1	> 10
CC1=C(/C=N/NC(=O)c2cncc(-c3ccc(OC(C)C)cc3)n2)CCCC1 [Compound 199, (E)-6-(4-isopropoxyphenyl)-N′-((2-methylcyclohept-1-en-1-yl)methylene)pyrazine-2-carbohydrzide]			0.166	1.74
COc1ccc(-c2cncc(C(=O)N/N=C/C3=C(C)CCCCC3)n2)cc1 [Compound 200]			0.129	2.65
CC1=C(/C=N/NC(=O)c2cncc(-c3ccc(OC(C)C)cc3)n2)CCCCC1 [Compound 202, (E)-6-(4-isopropoxyphenyl)-N′-((2-methylcyclohept-1-en-1-yl)methylene)pyrazine-2-carbohydrazide]			0.093	0.107
CCOc1ccc(-c2nc(C(=O)N/N=C/c3cc(OC)cc(OC)c3)cnc2N)cc1 [Compound 206, (E)-5-amino-N′-(3,5-dimethoxybenzylidene)-6-(4-ethoxyphenyl)pyrazine-2-carbohydrazide]			> 1	> 10
CCOc1ccc(-c2nc(C(=O)N/N=C/c3cc(OC)cc(OC)c3)cnc2Cl)cc1 [Compound 209, (E)-5-chloro-N′-(3,5-dimethoxybenzylidene)-6-(4-ethoxyphenyl)pyrazine-2-carbohydrazide]			0.189	2.47
CCOc1ccc(-c2nc(C(=O)N/N=C/c3cc(OC)cc(OC)c3)cnc2C(F)(F)F)cc1 [Compound 210, (E)-N′-(3,5-dimethoxybenzylidene)-6-(4-ethoxyphenyl)-5-(trifluoromethyl)pyrazine-2-carbohydrazide]			0.68	> 10
CCOc1ccc(-c2nc(C(=O)N/N=C/c3cc(OC)cc(OC)c3)cnc2OCC)cc1 [Compound 212, (E)-N′-(3,5-dimethoxybenzylidene)-5-ethoxy-6-(4-ethoxyphenyl)pyrazine-2-carbohydrazide]			> 1	> 10
CCOc1cc(C)c(-c2cncc(C(=O)N/N=C/c3cccc(OC)c3)n2)c(C)c1 [Compound 213, (E)-6-(4-ethoxy-2,6-diemthylphenyl)-N′-(3-methoxybenzylidene)pyrazine-2-carbohydrazide]			> 1	> 10
CCOc1ccc(-c2cncc(C(=O)N/N=C/c3cc(CCO)cc(OC)c3)n2)cc1 [Compound 214]			> 1	> 10
